What all share (type): cell-based
The test system of assay [1] is human granulocytes. The assay is described as follows: NO release by granulocytes (nitrite, Griess). On the technique in general: Griess reagent forms a coloured azo dye with nitrite.
Method: Granulocytes were resuspended at 5×10^6/ml in HBSS and 225 μl of the cell suspension were added to 50 μl of 0.2 mM cytochrome c and were incubated for 30 min at 37° C. in the absence (control) or in the presence of 250 nM or 20 μM ABA, the latter concentration without or with 1 mM EDTA, 20 mM nicotinamide or 0.1 mM 8-Br-cADPR. […] The results are expressed as the production relative to control cells, not stimulated with ABA, and are the mean ±SD from 5 experiments.
The method used to determine NO released from the cells into the medium exploits the spontaneous conversion of NO to nitrates and the subsequent enzymatic reduction of nitrates to nitrites by the enzyme nitrate reductase. […] Granulocytes (60×10^6/well) or murine microglia cells N9 (2×10^5/well) were incubated in 24-well plates for 60 min at 37° C. in the presence of ABA at different concentrations. The supernatants were then centrifuged and diluted with an equal volume of Griess reagent (0.1% naphthyl-ethylenediamine dihydrochloride in distilled water, 1% sulphanylamide in 5% concentrated H3PO4). Absorbance at 545 nm was estimated after 10 min and the nitrite concentration was calculated using a standard curve, generated in parallel with known amounts of NaNO2.
In assay [2] the test system is human granulocytes. The assay can be described thus: Chemotaxis and chemokinesis of granulocytes.
Method: Assays were performed using 96-well ChemoTx system microplates with a 3-μm pore size polycarbonate filter (NeuroProbe Inc., Gaithersburg, USA). Cells (granulocytes or murine microglia) were resuspended at 10^7/ml in HBSS, PBS and 5% albumin, 39:16:1 (chemotaxis buffer, CB). In order to evaluate the chemoattractant effect of ABA, hormone concentrations ranging from 50 nM to 20 μM were added in CB in the bottom wells and 25 μl cell suspensions were placed on top of the filter. To evaluate a possible stimulatory effect of ABA on spontaneous cell movements (chemokinesis), cells were pre-incubated with or without 20 μM ABA, then washed and placed on top of the filter, in contact with CB. Plates were incubated at 37° C. for 60 min and transmigrated cells were recovered and quantified by fluorimetric assay with Cytox Green. The number of transmigrated cells was calculated by comparison of the measured fluorescence with that of a standard curve, obtained by directly placing a serial dilution of cells in the bottom wells. The results of the chemotaxis experiments are expressed as “chemotaxis index” (CI): CI=number of cells migrated towards chemoattractant/number of cells migrated towards CB
Assay [3] concerns human granulocytes. The assay can be described thus: Intracellular calcium [Ca2+]i in granulocytes. How it is done:
Granlocytes were isolated by density gradient centrifugation from the peripheral blood of healthy donors, after informed consent. Contaminating erythrocytes were removed by hypotonic lysis. […] The increase of [cADPR]i in turn induces a progressive rise of [Ca^2+]i, from a basal value of 50±2 nM to 170±25 nM after 10 min from the addition of 10 μM ABA (n=4). […] The increase of the [Ca^2+]i induced by ABA in granulocytes is in turn responsible for activation of several functional activities typical of these cells. The functional effects induced by ABA (at concentrations ranging between 0.2 and 20 μM) in granulocytes include stimulation of the production of reactive oxygen species (ROS), measured through the cytochrome c […] (FIG. 2A), and of nitric oxide (NO), measured as accumulation of nitrite, the end-product of NO […] (FIG. 2B).

Assay [4] relates to human granulocytes. The assay can be described thus: ROS production by granulocytes (cytochrome c assay).
Method: Granulocytes were resuspended at 5×10^6/ml in HBSS and 225 μl of the cell suspension were added to 50 μl of 0.2 mM cytochrome c and were incubated for 30 min at 37° C. in the absence (control) or in the presence of 250 nM or 20 μM ABA, the latter concentration without or with 1 mM EDTA, 20 mM nicotinamide or 0.1 mM 8-Br-cADPR. The amount of ROS (panel A) or of NO (panel B) in the cell supernatant was measured as described in Materials and Methods. The results are expressed as the production relative to control cells, not stimulated with ABA, and are the mean ±SD from 5 experiments.
Release of superoxide (O2^−) by human granulocytes was quantified by a spectrophotometric assay of cytochrome c reduction (Cohen, J Clin Invest 1978). Granulocytes were resuspended in HBSS (at 5×10^6 cells/ml) and 225 μl of the cell suspension was incubated for 30 min at 37° C. with 50 μl cytochrome c (0.2 mM) in the absence (control) or in the presence of ABA at different concentrations. Then, cells were centrifuged at 5,000×g for 15 s and the absorbance of the supernatants was recorded at 550 nm (λmax for reduced cytocrome c).

Turning to `N=c1c2nc(Br)n3c2ncn1C1OC(COP(=O)(O)OP(=O)(O)OCC2OC3C(O)C2O)C(O)C1O` (stereo not shown) [8-Br-cADPR, reference compound], in the assay with human granulocytes [1], the “effect on ABA-induced NO production” value is given as “inhibited”. Besides, in the assay with human granulocytes [2], the “effect on ABA-induced chemokinesis and chemotaxis” value is “inhibited”. For the same molecule, the “inhibition of the ABA-induced increase of [Ca2+]i” value in the assay on human granulocytes [3] was “approx. 60%”. In addition, the “effect on ABA-induced ROS production” value in the assay with human granulocytes [4] is “inhibited”.
For the molecule `O=C(O)CN(CCN(CC(=O)O)CC(=O)O)CC(=O)O` [EDTA, reference compound], the “effect on ABA-induced NO production” value in the assay on human granulocytes [1] was “inhibited”. In addition, in the assay on human granulocytes [4], the “effect on ABA-induced ROS production” value is on record as “inhibited”.
For the molecule `O=C(O)CN(CCOCCOCCN(CC(=O)O)CC(=O)O)CC(=O)O` [EGTA], the “effect on the ABA-induced increase of [Ca2+]i” value in the assay with human granulocytes [3] is recorded as “almost completely prevents”.
With `NC(=O)c1cccnc1` [nicotinamide, reference compound], the “effect on ABA-induced NO production” value in the assay with human granulocytes [1] is on record as “inhibited”. In addition, the “effect on ABA-induced chemokinesis and chemotaxis” value in the assay on human granulocytes [2] was “inhibited”. For the same molecule, the “effect on ABA-induced ROS production” value in the assay on human granulocytes [4] is listed as “inhibited”.

The record behind these values is patent publication US7786042B2, “Fluridone as an anti-inflammatory agent” (Universita' Degli Studi Di Genova, priority 2005, dated 2010).
